Test results: ChEMBL document CHEMBL6074715, “Discovery of pyridine-based derivatives as FLT3 inhibitors for the treatment of acute myeloid leukemia” (Eur J Med Chem, 2025)
Calls of active or inactive are those of the source. The rule behind the calls is not given here.

Experiments:
MOLM-13 [1] = test: Induction of cell cycle arrest in human MOLM-13 cells assessed as accumulation of cells at S phase at 3 uM measured after 48 hrs by PI staining based flow cytometry analysis (reference value: 45.3%); type: functional
[2] = test system: Receptor-type tyrosine-protein kinase FLT3 (Homo sapiens), P36888 [UNDEFINED MUTATION]; test: Inhibition of human FLT3-ITD at 1 uM by Eurofins kinase assay
[3] = AUC (0 to t) in Sprague-Dawley rat at 5 mg/kg, iv measured upto 48 hrs by LC-MS/MS analysis; type: ADME, organism-based; details: in vivo
[4] = biological target: Aurora kinase A (Homo sapiens) (UniProt O14965); test: Inhibition of human AuroraA at 1 uM by Eurofins kinase assay
MOLM-13 [5] = test: Induction of cell cycle arrest in human MOLM-13 cells assessed as accumulation of cells at G2 phase at 0.3 uM measured after 48 hrs by PI staining based flow cytometry analysis (reference value: 12.5%); type: functional
MOLM-13 [6] = test: Induction of apoptosis in human MOLM-13 cells assessed as late apoptotic cells at 3 uM measured after 48 hrs by annexin-V and PI staining based flow cytometry analysis (reference value: 2.28%); type: functional
[7] = biological target: Serine/threonine-protein kinase B-raf (Homo sapiens) (UniProt P15056); test: Inhibition of human BRAF at 1 uM by Eurofins kinase assay
[8] = Toxicity in female NSG mouse assessed as effect on lung at 20 to 40 mg/kg, po measured after 21 days by H and E staining based analysis; type: organism-based; details: in vivo, 504 h, dose 20-40 mg/kg, time 21 day
MOLM-13 [9] = test: Induction of apoptosis in human MOLM-13 cells assessed as necrotic cells at 0.3 uM measured after 48 hrs by annexin-V and PI staining based flow cytometry analysis (reference value: 0.087%); type: functional
[10] = biological target: Macrophage colony-stimulating factor 1 receptor (Homo sapiens, UniProt P07333); test: Inhibition of human FMS assessed as residual activity at 1 uM by Eurofins kinase assay relative to control
[11] = biological target: Platelet-derived growth factor receptor alpha (Homo sapiens) (UniProt P16234); test: Inhibition of human PDGFRalpha at 1 uM by Eurofins kinase assay
MOLM-13 [12] = test: Induction of cell cycle arrest in human MOLM-13 cells assessed as accumulation of cells at S phase at 1 uM measured after 48 hrs by PI staining based flow cytometry analysis (reference value: 45.3%); type: functional
MOLM-13 [13] = test: Antiproliferative activity against human MOLM-13 cells assessed as inhibition of cell growth measured after 72 hrs by Celltiter-glo luminescent cell viability assay; type: functional, cell-based; details: MOLM-13, 72 h
SBC-5 = test: Antiproliferative activity against human SBC-5 cells assessed as inhibition of cell growth measured after 72 hrs by Celltiter-glo luminescent cell viability assay; type: functional, cell-based; details: SBC-5, 72 h
BaF3 = test: Antiproliferative activity against mouse BaF3 cells harbouring TEL-VEGFR2 assessed as inhibition of cell growth measured after 72 hrs by Celltiter-glo luminescent cell viability assay; type: functional, cell-based; details: BaF3, 72 h
MOLM-13 [14] = test: Induction of apoptosis in human MOLM-13 cells assessed as early apoptotic cells at 3 uM measured after 48 hrs by annexin-V and PI staining based flow cytometry analysis (reference value: 8.92%); type: functional
Homo sapiens = species on record: Homo sapiens; test: Inhibition of human CDK1/cyclinB at 1 uM by Eurofins kinase assay
[15] = biological target: Insulin-like growth factor 1 receptor (Homo sapiens) (UniProt P08069); test: Inhibition of human IGF-1R at 1 uM by Eurofins kinase assay
[16] = Toxicity in female NSG mouse assessed as effect on heart at 20 to 40 mg/kg, po measured after 21 days by H and E staining based analysis; type: organism-based; details: in vivo, 504 h, dose 20-40 mg/kg, time 21 day
[17] = biological target: Receptor-interacting serine/threonine-protein kinase 1 (Homo sapiens) (UniProt Q13546); test: Inhibition of human RIPK1 at 1 uM by Eurofins kinase assay
[18] = biological target: Insulin receptor (Homo sapiens) (UniProt P06213); test: Inhibition of human INSR at 1 uM by Eurofins kinase assay
[19] = biological target: Tyrosine-protein kinase JAK2 (Homo sapiens) (UniProt O60674); test: Inhibition of human JAK2 at 1 uM by Eurofins kinase assay
[20] = MRT (0 to t) in Sprague-Dawley rat at 5 mg/kg, iv measured upto 48 hrs by LC-MS/MS analysis; type: ADME, organism-based; details: in vivo
[21] = biological target: Fibroblast growth factor receptor 1 (Homo sapiens) (UniProt P11362); test: Inhibition of human FGFR1 at 1 uM by Eurofins kinase assay
[22] = biological target: Angiopoietin-1 receptor (Homo sapiens) (UniProt Q02763); test: Inhibition of human […] at 1 uM by Eurofins kinase assay
[23] = biological target: Vascular endothelial growth factor receptor 3 (Homo sapiens, UniProt P35916); test: Inhibition of FLT4 (unknown origin) preincubated for 10 mins followed by addition of peptide solution by caliper mobility shift assay
K562 = test: Antiproliferative activity against human K562 cells assessed as inhibition of cell growth measured after 72 hrs by Celltiter-glo luminescent cell viability assay; type: functional, cell-based; details: K562, 72 h
[24] = Clearance in Sprague-Dawley rat at 5 mg/kg, iv measured upto 48 hrs by LC-MS/MS analysis; type: ADME, organism-based; details: in vivo
[25] = biological target: Receptor-type tyrosine-protein kinase FLT3 (Homo sapiens, UniProt P36888, ITD); test: Inhibition of FLT3 ITD mutant (unknown origin) preincubated for 10 mins followed by addition of peptide solution by caliper mobility shift assay
[26] = test system: Receptor-type tyrosine-protein kinase FLT3 (Homo sapiens), P36888 [D835Y]; test: Inhibition of human FLT3 D835Y mutant at 1 uM by Eurofins kinase assay
[27] = biological target: Fibroblast growth factor receptor 3 (Homo sapiens) (UniProt P22607); test: Inhibition of human FGFR3 at 1 uM by Eurofins kinase assay
MOLM-13 [28] = test: Induction of apoptosis in human MOLM-13 cells assessed as early apoptotic cells at 1 uM measured after 48 hrs by annexin-V and PI staining based flow cytometry analysis (reference value: 8.92%); type: functional
[29] = biological target: Receptor-type tyrosine-protein kinase FLT3 (Homo sapiens) (UniProt P36888); test: Inhibition of human FLT3 at 1 uM by Eurofins kinase assay
[30] = biological target: Tyrosine-protein kinase ZAP-70 (Homo sapiens) (UniProt P43403); test: Inhibition of human ZAP-70 at 1 uM by Eurofins kinase assay
[31] = biological target: ALK tyrosine kinase receptor (Homo sapiens) (UniProt Q9UM73); test: Inhibition of human ALK at 1 uM by Eurofins kinase assay
OE33 = test: Antiproliferative activity against human OE33 cells assessed as inhibition of cell growth measured after 72 hrs by Celltiter-glo luminescent cell viability assay; type: functional, cell-based; details: OE33, 72 h
MV4-11 = test: Antiproliferative activity against human MV4-11 cells assessed as inhibition of cell growth measured after 72 hrs by Celltiter-glo luminescent cell viability assay; type: functional, cell-based; details: MV4-11, 72 h
MOLM-13 [32] = test: Induction of apoptosis in human MOLM-13 cells assessed as late apoptotic cells at 1 uM measured after 48 hrs by annexin-V and PI staining based flow cytometry analysis (reference value: 2.28%); type: functional

Tyrosine-protein kinase JAK2 (Homo sapiens), sequence (O60674 whole entry): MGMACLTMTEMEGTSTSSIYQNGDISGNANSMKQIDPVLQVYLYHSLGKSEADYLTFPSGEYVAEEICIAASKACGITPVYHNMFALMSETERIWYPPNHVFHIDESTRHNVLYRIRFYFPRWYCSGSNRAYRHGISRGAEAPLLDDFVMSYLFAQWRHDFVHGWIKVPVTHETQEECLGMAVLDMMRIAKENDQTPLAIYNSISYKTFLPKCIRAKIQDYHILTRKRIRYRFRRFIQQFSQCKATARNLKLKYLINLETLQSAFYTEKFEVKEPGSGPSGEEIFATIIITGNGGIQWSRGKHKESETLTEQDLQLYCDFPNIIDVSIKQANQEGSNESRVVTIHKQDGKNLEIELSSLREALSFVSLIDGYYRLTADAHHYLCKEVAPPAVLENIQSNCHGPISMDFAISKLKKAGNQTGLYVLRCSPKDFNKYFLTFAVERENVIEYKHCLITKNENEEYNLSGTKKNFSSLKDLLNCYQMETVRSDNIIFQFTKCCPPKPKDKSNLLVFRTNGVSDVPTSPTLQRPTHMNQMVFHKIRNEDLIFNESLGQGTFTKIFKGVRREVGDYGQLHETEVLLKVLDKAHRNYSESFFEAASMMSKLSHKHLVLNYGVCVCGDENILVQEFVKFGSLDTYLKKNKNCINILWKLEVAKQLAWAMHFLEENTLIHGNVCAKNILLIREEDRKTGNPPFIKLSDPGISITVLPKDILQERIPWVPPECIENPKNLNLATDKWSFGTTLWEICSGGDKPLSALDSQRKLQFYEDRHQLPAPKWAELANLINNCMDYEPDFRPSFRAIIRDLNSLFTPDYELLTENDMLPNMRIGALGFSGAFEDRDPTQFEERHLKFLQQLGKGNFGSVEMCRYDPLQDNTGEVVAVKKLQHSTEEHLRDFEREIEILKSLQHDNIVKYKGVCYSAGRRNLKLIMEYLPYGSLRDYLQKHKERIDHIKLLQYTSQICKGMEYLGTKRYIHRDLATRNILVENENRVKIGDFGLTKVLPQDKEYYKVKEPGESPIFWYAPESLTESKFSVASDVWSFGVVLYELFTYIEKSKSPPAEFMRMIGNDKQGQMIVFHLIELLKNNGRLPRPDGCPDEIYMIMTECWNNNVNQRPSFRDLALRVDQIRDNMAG
Aurora kinase A (Homo sapiens), sequence (O14965 whole entry): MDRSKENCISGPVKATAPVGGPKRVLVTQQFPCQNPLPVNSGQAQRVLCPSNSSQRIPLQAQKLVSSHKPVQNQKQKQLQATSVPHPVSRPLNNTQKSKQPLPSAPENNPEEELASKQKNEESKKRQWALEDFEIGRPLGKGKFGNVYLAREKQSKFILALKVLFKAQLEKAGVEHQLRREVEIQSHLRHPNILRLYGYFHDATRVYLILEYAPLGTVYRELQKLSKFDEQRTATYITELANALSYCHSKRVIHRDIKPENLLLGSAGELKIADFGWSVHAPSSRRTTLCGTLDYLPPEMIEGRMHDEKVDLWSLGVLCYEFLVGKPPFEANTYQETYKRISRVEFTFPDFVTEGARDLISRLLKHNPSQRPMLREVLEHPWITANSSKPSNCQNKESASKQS
Platelet-derived growth factor receptor alpha (Homo sapiens), sequence (P16234 whole entry): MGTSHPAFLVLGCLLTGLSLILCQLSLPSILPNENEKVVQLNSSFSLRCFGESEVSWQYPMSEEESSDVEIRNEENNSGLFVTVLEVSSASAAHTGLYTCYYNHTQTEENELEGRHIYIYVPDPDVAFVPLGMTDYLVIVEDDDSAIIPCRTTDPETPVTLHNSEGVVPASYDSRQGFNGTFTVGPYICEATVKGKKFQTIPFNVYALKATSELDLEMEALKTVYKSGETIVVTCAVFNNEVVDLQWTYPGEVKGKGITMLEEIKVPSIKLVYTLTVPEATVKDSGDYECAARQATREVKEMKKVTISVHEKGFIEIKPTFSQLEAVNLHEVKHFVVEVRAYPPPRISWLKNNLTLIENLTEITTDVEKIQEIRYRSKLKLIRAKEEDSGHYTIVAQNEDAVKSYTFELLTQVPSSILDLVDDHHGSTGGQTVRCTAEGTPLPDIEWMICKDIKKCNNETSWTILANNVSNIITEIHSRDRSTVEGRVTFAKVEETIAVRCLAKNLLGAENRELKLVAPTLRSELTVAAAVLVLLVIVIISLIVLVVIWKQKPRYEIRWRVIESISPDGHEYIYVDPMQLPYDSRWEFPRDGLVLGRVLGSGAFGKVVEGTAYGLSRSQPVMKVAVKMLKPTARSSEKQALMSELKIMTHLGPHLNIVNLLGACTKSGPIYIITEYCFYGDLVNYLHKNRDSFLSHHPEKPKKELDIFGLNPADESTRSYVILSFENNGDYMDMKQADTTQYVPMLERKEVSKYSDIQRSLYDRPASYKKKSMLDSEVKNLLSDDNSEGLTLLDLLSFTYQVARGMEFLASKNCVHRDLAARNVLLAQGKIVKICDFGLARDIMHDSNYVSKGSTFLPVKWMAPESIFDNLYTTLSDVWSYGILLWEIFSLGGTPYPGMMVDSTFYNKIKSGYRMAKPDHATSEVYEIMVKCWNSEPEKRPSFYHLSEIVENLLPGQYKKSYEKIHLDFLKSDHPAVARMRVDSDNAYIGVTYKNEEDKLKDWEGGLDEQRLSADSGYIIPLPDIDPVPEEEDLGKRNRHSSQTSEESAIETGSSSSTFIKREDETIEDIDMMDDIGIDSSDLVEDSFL
Insulin-like growth factor 1 receptor (Homo sapiens), sequence (P08069 31-736 limits assumed): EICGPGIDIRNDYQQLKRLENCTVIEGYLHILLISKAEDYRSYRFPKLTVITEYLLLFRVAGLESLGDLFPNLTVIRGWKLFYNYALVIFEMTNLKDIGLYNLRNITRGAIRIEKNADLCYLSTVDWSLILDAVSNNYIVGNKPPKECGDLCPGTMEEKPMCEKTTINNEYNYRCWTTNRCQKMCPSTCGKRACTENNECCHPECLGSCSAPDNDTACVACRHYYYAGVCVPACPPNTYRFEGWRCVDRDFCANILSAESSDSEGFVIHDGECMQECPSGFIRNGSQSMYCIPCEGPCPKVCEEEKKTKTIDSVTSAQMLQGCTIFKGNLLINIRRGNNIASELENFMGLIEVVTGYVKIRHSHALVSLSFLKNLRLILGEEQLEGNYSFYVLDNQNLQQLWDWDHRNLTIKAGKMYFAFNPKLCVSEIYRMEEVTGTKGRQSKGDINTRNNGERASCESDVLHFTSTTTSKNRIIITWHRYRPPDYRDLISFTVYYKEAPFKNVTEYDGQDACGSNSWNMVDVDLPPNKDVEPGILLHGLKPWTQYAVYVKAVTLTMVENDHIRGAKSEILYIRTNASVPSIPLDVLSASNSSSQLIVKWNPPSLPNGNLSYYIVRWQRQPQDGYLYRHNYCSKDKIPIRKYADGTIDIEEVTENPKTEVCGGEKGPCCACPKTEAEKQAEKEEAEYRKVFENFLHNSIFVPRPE
Insulin-like growth factor 1 receptor (Homo sapiens), sequence (P08069 741-1367 limits assumed): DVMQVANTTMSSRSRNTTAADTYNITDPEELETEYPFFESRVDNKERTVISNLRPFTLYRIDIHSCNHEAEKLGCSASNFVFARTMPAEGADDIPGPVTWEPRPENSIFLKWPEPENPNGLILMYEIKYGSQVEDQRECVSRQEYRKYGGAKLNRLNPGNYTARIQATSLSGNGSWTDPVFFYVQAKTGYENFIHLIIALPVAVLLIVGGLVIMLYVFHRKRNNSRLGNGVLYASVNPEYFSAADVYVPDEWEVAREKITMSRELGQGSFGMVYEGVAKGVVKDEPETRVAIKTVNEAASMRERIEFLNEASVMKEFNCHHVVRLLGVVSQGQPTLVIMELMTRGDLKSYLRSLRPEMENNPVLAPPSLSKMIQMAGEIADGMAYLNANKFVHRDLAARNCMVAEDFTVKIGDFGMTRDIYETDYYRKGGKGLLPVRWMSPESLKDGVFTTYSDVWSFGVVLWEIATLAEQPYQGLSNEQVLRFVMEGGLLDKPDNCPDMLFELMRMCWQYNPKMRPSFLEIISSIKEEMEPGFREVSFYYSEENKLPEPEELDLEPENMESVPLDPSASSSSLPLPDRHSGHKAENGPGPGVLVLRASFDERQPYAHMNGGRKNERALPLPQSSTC
Serine/threonine-protein kinase B-raf (Homo sapiens), sequence (P15056 whole entry): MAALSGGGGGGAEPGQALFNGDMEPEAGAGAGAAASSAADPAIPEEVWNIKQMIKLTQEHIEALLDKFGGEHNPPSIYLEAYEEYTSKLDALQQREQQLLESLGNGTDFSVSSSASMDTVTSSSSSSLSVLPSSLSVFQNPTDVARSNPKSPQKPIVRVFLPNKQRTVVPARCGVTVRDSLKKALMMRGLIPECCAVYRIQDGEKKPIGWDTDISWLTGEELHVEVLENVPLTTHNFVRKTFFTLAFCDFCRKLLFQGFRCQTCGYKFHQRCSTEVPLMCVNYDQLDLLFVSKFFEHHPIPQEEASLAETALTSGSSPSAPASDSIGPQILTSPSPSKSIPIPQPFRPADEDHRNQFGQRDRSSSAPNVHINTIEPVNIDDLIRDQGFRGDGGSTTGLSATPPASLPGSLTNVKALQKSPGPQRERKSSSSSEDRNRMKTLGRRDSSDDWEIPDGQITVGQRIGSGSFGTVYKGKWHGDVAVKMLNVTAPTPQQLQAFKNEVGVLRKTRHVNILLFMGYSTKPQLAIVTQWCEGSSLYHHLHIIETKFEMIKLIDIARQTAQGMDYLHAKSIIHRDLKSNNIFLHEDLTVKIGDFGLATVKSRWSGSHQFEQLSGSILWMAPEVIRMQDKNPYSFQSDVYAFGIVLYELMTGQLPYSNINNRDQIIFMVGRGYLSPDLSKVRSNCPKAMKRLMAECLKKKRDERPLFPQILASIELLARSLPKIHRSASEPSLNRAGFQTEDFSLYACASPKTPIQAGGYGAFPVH

inhibition [2]: inactive
AUC(0-t) at 48 h [3]: 59.3 µg·h/mL
inhibition [4]: inactive
inhibition [7]: inactive
Activity [10]: 22%
inhibition [11]: inactive
IC50 (MOLM-13 [13]): 0.062 µM
IC50 (BaF3): 0.29 µM
inhibition (Homo sapiens): inactive
inhibition [15]: inactive
inhibition [17]: inactive
inhibition [18]: inactive
inhibition [19]: inactive
MRT last at 48 h [20]: 3.01 h
inhibition [21]: inactive
inhibition [22]: inactive
IC50 [23]: 0.475 µM
IC50 (K562): 16.6 µM
clearance [24]: 0.0846 L/h/kg
IC50 [25]: 0.069 µM
inhibition [26]: inactive
inhibition [27]: inactive
inhibition [29]: inactive
inhibition [30]: inactive
inhibition [31]: inactive
IC50 (MV4-11): 0.13 µM
Compound: O=C(Nc1ccc(Oc2ccnc(NC(=O)N3CC(O)C3)c2)c(F)c1)c1cn(-c2cccnc2)nn1
Activity (MOLM-13 [1]): 4.87%
Activity (MOLM-13 [5]): 4.21%
Activity (MOLM-13 [6]): 11%
Activity [8]: Non-toxic
Activity (MOLM-13 [9]): 0.063%
Activity (MOLM-13 [12]): 3.57%
IC50 (SBC-5): > 30 µM
Activity (MOLM-13 [14]): 38.4%
Activity [16]: Non-toxic
Activity (MOLM-13 [28]): 33.6%
IC50 (OE33): > 30 µM
Activity (MOLM-13 [32]): 9.44%
